The values that follow come from patent US20240148821A1, “PHARMACEUTICAL USE OF CYCLIC PEPTIDE COMPOUND” (CHUGAI SEIYAKU KABUSHIKI KAISHA, priority 2021, published 2024).

Numbered stars: 1 amine (or outer) side, 2 acyl side, 3 side chain; on linkers, the order of the positions; unused ones are H or OH. Bridge positions count the residues as written; N and C are the ends. Square brackets hold non-standard residues; d marks the D form. Peptide text beside a SMILES is read from it. * marks the point of attachment. hPhe(3-Cl-4-CF3) = N[C@@H](CCc1ccc(C(F)(F)F)c(Cl)c1)C(=O)O; NMeAla(4-thiazolyl) = CN[C@@H](Cc1cscn1)C(=O)O; NMePhe(4-CN) = CN[C@@H](Cc1ccc(C#N)cc1)C(=O)O; NMePhe(4-Me) = CN[C@@H](Cc1ccc(C)cc1)C(=O)O; X59 = Cc1ccc(Br)cc1C[C@H](N[*:1])C(=O)[*:2]; NMeNva(5,5-F2) = CN[C@@H](CCC(F)F)C(=O)O; NMeY = CN[C@@H](Cc1ccc(O)cc1)C(=O)O; NMeCha = CN[C@@H](CC1CCCCC1)C(=O)O; NMeChg = CN[C@H](C(=O)O)C1CCCCC1; NMeI = CC[C@H](C)[C@H](NC)C(=O)O; NMeD = CN[C@@H](CC(=O)O)C(=O)O; NMeL = CN[C@@H](CC(C)C)C(=O)O; Ahp(2) = CCCCC[C@H](N)C(=O)O; dNMeAbu = CC[C@@H](NC)C(=O)O; NMeV = CN[C@H](C(=O)O)C(C)C; d(β3hA) = C[C@@H](N)CC(=O)O; NMeAbu = CC[C@H](NC)C(=O)O; NMeS = CN[C@@H](CO)C(=O)O; NMeA = CN[C@@H](C)C(=O)O; NMeAib = CNC(C)(C)C(=O)O; Nle = CCCC[C@H](N)C(=O)O; Piperidide = C1CCN(*)CC1; Ac5c = NC1(C(=O)O)CCCC1; Aze = O=C(O)[C@@H]1CCN1; CH2CMe2OH = CC(C)(O)C*; βAla = NCCC(=O)O; Sar = CNCC(=O)O

For the test, the system named is Human pancreatic cancer cell line AsPC-1 (G12D mutation Kras). As to the kind of experiment: AsPC-1 cell growth inhibition (AsPC-1 CGI). The test is classed as cell-based. The conditions noted are these: read-out: AsPC-1 cell growth inhibition, 50% growth inhibitory concentration (IC50 value); 96 hours, CellTiter-Glo, values classified in ranges.
Experimental: Test compounds were serially dilated with dimethyl sulfoxide, and 200 nL was then dispensed to a U-bottom 96-well plate using Labcyte Echo. […] The cell suspension was dispensed to a. plate containing a test compound at 100 μL per well and incubated at 37° C. in a 5% carbon dioxide gas incubator. 96 hours later, 80 μL of CellTiter-Glo (Promega) was added to each well and fluorescence was measured.
`CCCCC[C@@H]1NC(=O)[C@H](CC(C)C)N(C)C(=O)C[C@@H](C(=O)N2CCCCC2)N(C)C(=O)[C@H](C2CCCCC2)N(C)C(=O)C2(CCCC2)NC(=O)[C@@H]2CCCN2C(=O)[C@H](CCc2ccc(C(F)(F)F)c(Cl)c2)NC(=O)CN(C)C(=O)[C@H](CC2CCCCC2)N(C)C(=O)CN(C)C(=O)CN(C)C1=O` [Compound 1692] ([NMeL][Ahp(2)][Sar][Sar][NMeCha][Sar][hPhe(3-Cl-4-CF3)]P[Ac5c][NMeChg][NMeD]-Piperidide; lactam N-11): the IC50 was more than 500 nM.
For `CC[C@@H]1C(=O)NC2(CCCC2)C(=O)N(C)[C@@H](C(C)C)C(=O)N(C)[C@H](C(=O)N2CCCCC2)CC(=O)N(C)[C@@H](CC(C)C)C(=O)N[C@@H]([C@@H](C)CC)C(=O)N(C)[C@@H](C)C(=O)N2CC[C@H]2C(=O)N(C)[C@@H](CC2CCCCC2)C(=O)N(C)CC(=O)N[C@@H](CCc2ccc(C(F)(F)F)c(Cl)c2)C(=O)N1C` [Compound 1438] ([NMeL]I[NMeA][Aze][NMeCha][Sar][hPhe(3-Cl-4-CF3)][dNMeAbu][Ac5c][NMeV][NMeD]-Piperidide; lactam N-11), the IC50 was more than 500 nM.
The figure for `CC[C@H](C)[C@@H]1NC(=O)[C@H](CC(C)C)N(C)C(=O)C[C@@H](C(=O)N(C)C)N(C)C(=O)[C@H]([C@@H](C)CC)N(C)C(=O)C2(CCCC2)NC(=O)[C@@H]2CCCN2C(=O)[C@H](CCc2ccc(C(F)(F)F)c(Cl)c2)NC(=O)CN(C)C(=O)[C@H](Cc2ccc(C)cc2)N(C)C(=O)CN(C)C(=O)CN(C)C1=O` [Compound 1836] ([NMeL]I[Sar][Sar][NMePhe(4-Me)][Sar][hPhe(3-Cl-4-CF3)]P[Ac5c][NMeI][NMeD]-NMe2; lactam N-11) is not above 20 nM; for `CC[C@H](C)[C@@H]1NC(=O)[C@H](CC(C)C)N(C)C(=O)C[C@@H](C(=O)N2CCCCC2)N(C)C(=O)[C@H](C2CCCCC2)N(C)C(=O)C2(CCCC2)NC(=O)[C@@H]2CCCN2C(=O)[C@H](CCc2ccc(C(F)(F)F)c(Cl)c2)NC(=O)CN(C)C(=O)[C@H](CCC(F)F)N(C)C(=O)CN(C)C(=O)CN(C)C1=O` [Compound 1647] ([NMeL]I[Sar][Sar][NMeNva(5,5-F2)][Sar][hPhe(3-Cl-4-CF3)]P[Ac5c][NMeChg][NMeD]-Piperidide; lactam N-11) it is more than 500 nM; for `CC[C@H](C)[C@@H]1NC(=O)[C@H](CC(C)C)N(C)C(=O)C[C@@H](C(=O)N2CCCCC2)N(C)C(=O)[C@H](C2CCCCC2)N(C)C(=O)C2(CCCC2)NC(=O)[C@H](Cc2cscn2)N(C)C(=O)[C@H](CCc2ccc(C(F)(F)F)c(Cl)c2)NC(=O)CN(C)C(=O)[C@H](CC2CCCCC2)N(C)C(=O)CN(C)C(=O)CN(C)C1=O` [Compound 500] ([NMeL]I[Sar][Sar][NMeCha][Sar][hPhe(3-Cl-4-CF3)][NMeAla(4-thiazolyl)][Ac5c][NMeChg][NMeD]-Piperidide; lactam N-11) it is more than 500 nM.
The result for `CC[C@H](C)[C@@H]1NC(=O)[C@H](CC(C)C)N(C)C(=O)C[C@@H](C(=O)N2CCCCC2)N(C)C(=O)[C@H](CC2CCCCC2)N(C)C(=O)C2(CCCC2)NC(=O)[C@@H]2CCCN2C(=O)[C@H](CCc2ccc(C(F)(F)F)c(Cl)c2)NC(=O)CN(C)C(=O)[C@H](CC2CCCCC2)N(C)C(=O)CN(C)C(=O)CN(C)C1=O` [Compound 577] ([NMeL]I[Sar][Sar][NMeCha][Sar][hPhe(3-Cl-4-CF3)]P[Ac5c][NMeCha][NMeD]-Piperidide; lactam N-11) reads more than 500 nM; that for `CC[C@H](C)[C@@H]1NC(=O)[C@H](CC(C)C)N(C)C(=O)C[C@@H](C)NC(=O)[C@H](C(C)C)N(C)C(=O)C2(CCCC2)NC(=O)[C@@H]2CCCN2C(=O)[C@H](CCc2ccc(C(F)(F)F)c(Cl)c2)NC(=O)CN(C)C(=O)[C@H](Cc2ccc(C#N)cc2)N(C)C(=O)CN(C)C(=O)CN(C)C1=O` [Compound 564] (cyclo([Ac5c][NMeV][d(β3hA)][NMeL]I[Sar][Sar][NMePhe(4-CN)][Sar][hPhe(3-Cl-4-CF3)]P)), more than 500 nM; that for `CC[C@H](C)[C@@H]1NC(=O)CCNC(=O)[C@H](COCC(C)(C)O)N(C)C(=O)[C@H](C2CCCCC2)N(C)C(=O)C2(CCCC2)NC(=O)[C@@H]2CCCN2C(=O)[C@H](CCc2ccc(C(F)(F)F)c(Cl)c2)NC(=O)CN(C)C(=O)[C@H](CC2CCCCC2)N(C)C(=O)CN(C)C(=O)CN(C)C1=O` [Compound 605] (cyclo([Ac5c][NMeChg][NMeS](CH2CMe2OH)[βAla]I[Sar][Sar][NMeCha][Sar][hPhe(3-Cl-4-CF3)]P)), more than 500 nM.
On to `CCCC[C@@H]1NC(=O)[C@H](Cc2cc(Br)ccc2C)NC(=O)CN(C)C(=O)[C@H](Cc2ccc(OC)cc2)N(C)C(=O)[C@@H]2CCN2C(=O)[C@H](C)N(C)C(=O)[C@H]([C@@H](C)CC)NC(=O)[C@H](CC)N(C)C(=O)C[C@@H](C(=O)N2CCCCC2)N(C)C(=O)[C@H](CC(C)C)NC(=O)C(C)(C)N(C)C1=O` [Compound 1195] ([NMeAbu]I[NMeA][Aze][NMeY](Me)[Sar][X59][Nle][NMeAib]L[NMeD]-Piperidide; lactam N-11), for which the IC50 is more than 500 nM.
